Laboratory results taken from EP1541694A1, “Methods of identifying, selecting and/or characterizing compounds which modulate the activity of a Src family kinase” (Sirenade Pharmaceuticals AG, priority 2003, dated 2005).

Experiments:
ZM75.7 (Src) = test: MTS and ATP cell viability/metabolic activity assays, suppression of tet-induced reduction; assay type: cell-based, human; conditions: 3 days after tet/compound addition
Description: To proof the concept of the assay platform according to the invention in a quantitative manner with a highly parallel readout, the following cell viability / metabolic activity assays from Promega according to the manufacturer's protocols: "CellTiter 96 AQueous One Solution Cell Proliferation Assay (MTS)", CellTiter-Blue™ Cell Viability Assay (CTB), and the ATP-status assay "CellTiter-Glo Luminescent Cell Viability Assay" (ATP) were used to obtain quantitative values reflecting (aspects of) the phenotype changes.
The cells were seeded into white-walled/ clear bottom 96-well plates ["MICROTEST" by Falcon, cat.no. […] Measurements were taken 1,2 and 3 days later using the Wallac Victor^2™ multilabel plate reader (Perkin Elmer). Absorbance was measured at 490nm (MTS). Luminescence mode was used for the ATP assay. For CTB fluorescence excitation wavelength was 550nm (filter: 550(20)nm), emission wavelength was 590 nm (filter: 590(20)nm). […]
Three more parameters reflecting the effects of compounds on cell viability/metabolic activity in these assays are indicated in Tab.3 and Tab.4: Toxicity reflects the nonspecific (i.e. irrespective of tet-induced Src/ Src mutant expression) effects of a compound on the viability/ metabolic activity of the cells. It is calculated as toxicity=1-mean(-tet, compound)/mean(-tet,(DMSO)). […]

[1] = system: Src-TQ/YF expressing cell line ZM170.21; test: CTB and ATP cell viability/metabolic activity assays, suppression of tet-induced reduction; assay type: cell-based, human; conditions: ZM170.21 (Src-TQ/YF), 5µM PP2 + 10µM PP1-Chr., 40µM D5, 1µM 17-AAG, 1µM radicicol
Description: To proof the concept of the assay platform according to the invention in a quantitative manner with a highly parallel readout, the following cell viability / metabolic activity assays from Promega according to the manufacturer's protocols: "CellTiter 96 AQueous One Solution Cell Proliferation Assay (MTS)", CellTiter-BlueTM Cell Viability Assay (CTB), and the ATP-status assay "CellTiter-Glo Luminescent Cell Viability Assay" (ATP) were used to obtain quantitative values reflecting (aspects of) the phenotype changes. The cells were seeded into white-walled/ clear bottom 96-well plates ["MICROTEST" by Falcon, cat.no. 353947] for MTS and ATP assays and in black-walled/ clear bottom 96-well plates ["MICROTEST" by Falcon, cat.no. 353948] for the CTB assay at the appropriate densities. Tet and/or compound addition (where applicable) was started the next day. Measurements were taken 1,2 and 3 days later using the Wallac Victor^2TM multilabel plate reader (Perkin Elmer). Absorbance was measured at 490nm (MTS). Luminescence mode was used for the ATP assay. For CTB fluorescence excitation wavelength was 550nm (filter: 550(20)nm), emission wavelength was 590 nm (filter: 590(20)nm). Indicated are the means of sixplicate determinations (from 6 independent wells) in the absence of tet (mean(-tet)) and in the presence of tet (mean(+tet)), followed by the respective corresponding standard deviations SD(-tet) and SD(+tet). The cell viability/ metabolic activity upon tet-induction in relation to the cell viability/ metabolic activity without tet ("+/tet(means") is calculated from the quotient of the means of the measured cell viability/ metabolic activity signals from i) cells incubated without tet and ii) cells incubated with tet. […] Furthermore indicated are the corresponding Z' values. In the present context: Z'=1-(3(SD(+tet)+SD(-tet))/ |mean(+tet)-mean(-tet)|. […] SD=0) (Zhang et al., 1999). Z'≥0 is required for an assay useful for a screening approach; a Z'≥0.5 is considered excellent for an assay with regard to high throughput screening. […] Three more parameters reflecting the effects of compounds on cell viability/metabolic activity in these assays are indicated in Tab.3 and Tab.4: Toxicity reflects the nonspecific (i.e. irrespective of tet-induced Src/ Src mutant expression) effects of a compound on the viability/ metabolic activity of the cells. It is calculated as toxicity=1-mean(-tet, compound)/mean(-tet,(DMSO)). […] The suppression value quantifies the potency of a compound with respect to suppression of the tet-induced change in cell viability / metabolic activity. Usually, tet-induction reduces cell viability / metabolic activity due to Src activity and addition of a Src inhibitory compound mitigates this reduction. A suppression of 100% means that the compound totally suppresses the tet-induced decrease in cell viability / metabolic activity (as in the absence of tet). The following formula is employed: Suppres-sion=([…]). Finally, the corresponding Z' value is calculated as follows: Z'(suppression)=1- 3([…]). The factor Qtox corrects the means and SD determined in the absence of a compound for the (nonspecific) toxicity effect of the respective compound, which would otherwise overlay and obscure the specific suppression, if toxicity is not neglectable. […] On each day 4 measurements are taken (1, 2, 3 and 4 h after the addition of the CTB assay reagents). […]

How did the “suppression effects on ZM75.7” value (ZM75.7 (Src)) turn out when CC(C)(C)n1nc(-c2ccc(Cl)cc2)c2c(N)ncnc21 [PP2] was run?
Its value is “detected”.

And the “suppression of the +/-tet(means)-values” [1]?
Its value is “did not significantly suppress”.
